From patent publication US5464607A, “5,5'-/(1,3-propanediyl) bis-/imino(2-oxo-2,1-ethanediyl)acetylimino/bis(2,4,6-triiodo-1,3-benzen edicarboxylamides), and contrast media containing them” (Dibra S.p.A., priority 1991, dated 1995)

How the values were obtained:
[1] = Osmolality (steampressure osmometer Wescor mod 5500); assay type: physicochemical
Excerpt: ^a) Calculated with a steampressure osmometer Wescor(R) mod 5500,
calibrated with NaCl aqueous solutions.

physchem = conditions: water
[2] = water
[3] = Viscosity (ROTOVISCO RV100CV100-LV100, sensor ZB15); assay type: physicochemical
Excerpt: ^b) Calculated with ROTOVISCO^(R) RV100CV100-LV100, sensor ZB15.

CC(=O)N(CC(=O)NCC(O)CNC(=O)CN(C(C)=O)c1c(I)c(C(=O)NCC(O)CO)c(I)c(C(=O)NCC(O)CO)c1I)c1c(I)c(C(=O)NCC(O)CO)c(I)c(C(=O)NCC(O)CO)c1I (centres unmarked) [5,5'-[(2-hydroxy-1,3-propanediyl)bis [imino(2-oxo-2,1-ethanediyl)acetylimino]]bis[N,N'-bis(2,3-dihydroxypropyl)-2,4,6-triiodo-1,3-benzenedicarboxyamide]]
Osmolality ([1]; 200 mgI/ml): 0,17 osmol/kg H2 O
Osmolality ([1]; 300 mgI/ml): 0,25 osmol/kg H2 O
Osmolality ([1]; 400 mgI/ml): 0,72 osmol/kg H2 O
solubility (physchem): > 1000 mg/mL
Solubility in H2 O at 30° C. [2]: > 100 g in 100 ml
Viscosity at 20° C. ([3]; 200 mgI/ml): 5,7 mPa·s
Viscosity at 20° C. ([3]; 300 mgI/ml): 24 mPa·s
Viscosity at 20° C. ([3]; 400 mgI/ml): 112 mPa·s
Viscosity at 37° C. ([3]; 200 mgI/ml): 3,4 mPa·s
Viscosity at 37° C. ([3]; 300 mgI/ml): 12 mPa·s
Viscosity at 37° C. ([3]; 400 mgI/ml): 41 mPa·s
